Results published in ChEMBL document CHEMBL4359816, “Discovery and Optimization of Quinolinone Derivatives as Potent, Selective, and Orally Bioavailable Mutant Isocitrate Dehydrogenase 1 (mIDH1) Inhibitors” (J Med Chem, 2019).
≈ marks a conversion by molar mass, not a printed value.

What was measured:
MDR1 (P-gp) = assay: Efflux ratio of apparent permeability from basolateral side to apical side over apical side to basolateral side in MDCK cells harboring MDR1 (unknown origin) at 10 uM incubated for 2 hrs by LC-MS/MS analysis; assay type: ADME, cell-based, Canis lupus familiaris; details: dog
[1] = molecular target: T1, Isocitrate dehydrogenase [NADP] cytoplasmic (Homo sapiens, UniProt O75874, R132C); assay: Inhibition of IDH1 R132C mutant in human HCT116 cells assessed as reduction in 2-HG levels after 24 hrs by RapidFire high-throughput mass spectrometry assay; assay type: cell-based
T1 sequence (O75874 2-414 R132C limits assumed): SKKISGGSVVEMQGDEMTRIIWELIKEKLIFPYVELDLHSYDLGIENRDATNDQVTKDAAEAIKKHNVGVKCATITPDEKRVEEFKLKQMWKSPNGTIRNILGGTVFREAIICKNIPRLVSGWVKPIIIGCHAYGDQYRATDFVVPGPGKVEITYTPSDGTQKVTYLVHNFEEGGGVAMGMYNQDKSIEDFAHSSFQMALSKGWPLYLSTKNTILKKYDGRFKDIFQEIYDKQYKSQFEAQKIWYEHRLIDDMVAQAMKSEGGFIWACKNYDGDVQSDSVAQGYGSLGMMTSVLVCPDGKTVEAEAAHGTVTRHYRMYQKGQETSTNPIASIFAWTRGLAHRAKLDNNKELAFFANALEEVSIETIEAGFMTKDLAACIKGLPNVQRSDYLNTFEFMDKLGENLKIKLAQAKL

[2] = molecular target: Isocitrate dehydrogenase [NADP] cytoplasmic (Homo sapiens, UniProt O75874); assay: Inhibition of wild-type IDH1 (unknown origin) by NADPH fluorescence based assay
Isocitrate dehydrogenase [NADP] cytoplasmic (Homo sapiens, UniProt O75874), sequence (O75874 whole entry): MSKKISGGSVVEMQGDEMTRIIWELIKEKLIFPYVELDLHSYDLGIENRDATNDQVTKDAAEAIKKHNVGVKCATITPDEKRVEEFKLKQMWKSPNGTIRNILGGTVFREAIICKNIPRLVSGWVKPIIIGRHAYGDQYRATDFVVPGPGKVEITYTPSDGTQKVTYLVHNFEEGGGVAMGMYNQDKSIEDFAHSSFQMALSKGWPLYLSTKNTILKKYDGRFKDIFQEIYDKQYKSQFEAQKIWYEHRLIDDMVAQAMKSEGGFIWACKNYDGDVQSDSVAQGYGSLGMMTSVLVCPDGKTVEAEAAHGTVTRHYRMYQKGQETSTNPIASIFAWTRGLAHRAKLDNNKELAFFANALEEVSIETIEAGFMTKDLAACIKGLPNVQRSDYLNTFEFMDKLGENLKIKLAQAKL

[3] = Kinetic solubility of the compound; assay type: physicochemical; details: read-out: Kinetic_solubility
[4] = Metabolic stability in human liver microsomes assessed as compound remaining after 30 mins; assay type: ADME, Microsome; details: read-out: Stability
[5] = Half-life in BALB/c mouse at 5 mg/kg, po measured up to 24 hrs; assay type: ADME, organism-based; details: in vivo
[6] = molecular target: T1, Isocitrate dehydrogenase [NADP] cytoplasmic; assay: Inhibition of human Myc-DDK-tagged IDH1 R132C mutant assessed as reduction in NADPH consumption pre-incubated for 15 mins followed by alpha-ketoglutarate substrate and NADPH addition after 45 mins by diaphorase and resazurin dye based assay
[7] = Total Cmax in BALB/c mouse at 5 mg/kg, po after 1 hr; assay type: ADME, organism-based; parameters: dose 5 mg/kg, route oral; details: in vivo
[8] = AUC (0 to 8 hrs) in BALB/c mouse at 5 mg/kg, po measured up to 24 hrs; assay type: ADME, organism-based; parameters: dose 5 mg/kg, time < 8 hr, route oral; details: in vivo
[9] = molecular target: T1, Isocitrate dehydrogenase [NADP] cytoplasmic; assay: Inhibition of human Myc-DDK-tagged IDH1 R132C mutant expressed in human U87MG cells assessed as reduction in 2-HG levels after 24 hrs by RapidFire high-throughput mass spectrometry assay; assay type: cell-based
[10] = Metabolic stability in mouse liver microsomes assessed as compound remaining after 30 mins; assay type: ADME, Microsome; details: read-out: Stability
Homo sapiens = organism: Homo sapiens; assay type: cell-based
[11] = Total plasma concentration in BALB/c mouse at 5 mg/kg, po at 4 hrs; assay type: ADME, organism-based
[12] = Half-life in human hepatocytes; assay type: ADME, cell-based, Hepatocyte
[13] = molecular target: Isocitrate dehydrogenase [NADP] cytoplasmic (Homo sapiens, UniProt O75874, R132G); assay: Inhibition of human Myc-DDK-tagged IDH1 R132G mutant expressed in human U87MG cells assessed as reduction in 2-HG levels after 24 hrs by RapidFire high-throughput mass spectrometry assay; assay type: cell-based
Isocitrate dehydrogenase [NADP] cytoplasmic (Homo sapiens, UniProt O75874, R132G), sequence (O75874 2-414 R132G limits assumed): as the sequence (O75874 2-414 R132C limits assumed) above, with C131G counted along it

[14] = Protein binding in dog plasma; assay type: ADME, cell-free, Canis lupus familiaris; details: read-out: PPB (converted)
[15] = Apparent permeability of the compound across basolateral side to apical side in human Caco2 cells; assay type: ADME, cell-based; details: Caco-2
[16] = molecular target: Isocitrate dehydrogenase [NADP] cytoplasmic (Homo sapiens, UniProt O75874, R132L); assay: Inhibition of human Myc-DDK-tagged IDH1 R132L mutant expressed in human U87MG cells assessed as reduction in 2-HG levels after 24 hrs by RapidFire high-throughput mass spectrometry assay; assay type: cell-based
Isocitrate dehydrogenase [NADP] cytoplasmic (Homo sapiens, UniProt O75874, R132L), sequence (O75874 2-414 R132L limits assumed): as the sequence (O75874 2-414 R132C limits assumed) above, with C131L counted along it

[17] = Octanol/aqueous buffer partition coefficient, log D of the compound at pH 7.4; assay type: physicochemical
[18] = Oral bioavailability in mouse at 5 mg/kg; assay type: ADME, organism-based; details: in vivo
[19] = Protein binding in human plasma; assay type: ADME, cell-free; details: read-out: PPB (converted)
[20] = Total AUC (infinity) in rat at 1 mg/kg, iv or 5 mg/kg, po; assay type: ADME, organism-based; details: in vivo
[21] = Efflux ratio of apparent permeability from basolateral side to apical side over apical side to basolateral side in human Caco2 cells; assay type: ADME, cell-based; details: Caco-2
[22] = Total AUC (infinity) in mouse at 1 mg/kg, iv or 5 mg/kg, po; assay type: ADME, organism-based; details: in vivo
[23] = Metabolic stability in rat liver microsomes assessed as compound remaining after 30 mins; assay type: ADME, Microsome; details: read-out: Stability
[24] = Half-life in rat at 1 mg/kg, iv or 5 mg/kg, po; assay type: ADME, organism-based; details: in vivo
[25] = Clearance in rat at 1 mg/kg, iv or 5 mg/kg, po; assay type: ADME, organism-based; details: in vivo
[26] = Clearance in mouse at 1 mg/kg, iv or 5 mg/kg, po; assay type: ADME, organism-based; details: in vivo
[27] = Permeability of the compound by PAMPA; assay type: ADME; details: read-out: permeability
[28] = Intrinsic clearance in human hepatocytes; assay type: ADME, cell-based, Hepatocyte; details: read-out: CLH
[29] = fAUC (infinity) in dog at 0.5 mg/kg, iv; assay type: ADME, organism-based, Canis lupus familiaris; details: in vivo
[30] = Protein binding in rat plasma; assay type: ADME, cell-free; details: read-out: PPB (converted)
[31] = Apparent permeability of the compound across apical side to basolateral side in human Caco2 cells; assay type: ADME, cell-based; details: Caco-2
[32] = Protein binding in mouse plasma; assay type: ADME, cell-free; details: read-out: PPB (converted)
[33] = Half-life in mouse at 1 mg/kg, iv or 5 mg/kg, po; assay type: ADME, organism-based; details: in vivo
[34] = molecular target: Isocitrate dehydrogenase [NADP] cytoplasmic (Homo sapiens, UniProt O75874, R132S); assay: Inhibition of human Myc-DDK-tagged IDH1 R132S mutant expressed in human U87MG cells assessed as reduction in 2-HG levels after 24 hrs by RapidFire high-throughput mass spectrometry assay; assay type: cell-based
Isocitrate dehydrogenase [NADP] cytoplasmic (Homo sapiens, UniProt O75874, R132S), sequence (O75874 2-414 R132S limits assumed): as the sequence (O75874 2-414 R132C limits assumed) above, with C131S counted along it

[35] = Clearance in dog at 0.5 mg/kg, iv; assay type: ADME, organism-based, Canis lupus familiaris; details: in vivo
[36] = Cmax in rat at 1 mg/kg, iv or 5 mg/kg, po; assay type: ADME, organism-based; details: in vivo
[37] = Oral bioavailability in rat at 5 mg/kg; assay type: ADME, organism-based; details: in vivo
[38] = Total AUC (infinity) in dog at 0.5 mg/kg, iv; assay type: ADME, organism-based, Canis lupus familiaris; parameters: dose 0.5 mg/kg, time AUCmax, route intravenous; details: in vivo
[39] = fAUC (infinity) in mouse at 1 mg/kg, iv or 5 mg/kg, po; assay type: ADME, organism-based; details: in vivo
[40] = fAUC (infinity) in rat at 1 mg/kg, iv or 5 mg/kg, po; assay type: ADME, organism-based; details: in vivo
[41] = Total Cmax in mouse at 1 mg/kg, iv or 5 mg/kg, po; assay type: ADME, organism-based; details: in vivo
[42] = Half-life in dog at 0.5 mg/kg, iv; assay type: ADME, organism-based, Canis lupus familiaris; details: in vivo

With `N#Cc1ccnc(N2C(=O)CC[C@H]2C(=O)N(c2cncc(F)c2)[C@H](C(=O)NC2CC(F)(F)C2)c2ccccc2Cl)c1` [IVOSIDENIB] the efflux ratio at 2 h, 10 µM (MDR1 (P-gp)) was over 350.
With `Cc1nc(NCc2cc3cc(Cl)ccc3[nH]c2=O)ccc1C#N` the IC50 [1] was 3210 nM, the IC50 [2] was 75000 nM and the solubility kinetic [3] was 0.64 µM (≈ 0.208 µg/mL). For the same compound, the remaining at 0.5 h [4] was 84%, the half-life [5] was 3.57 h and the IC50 [6] was 820 nM. The Cmax [7] was 480 nM, the AUC(0-t) at 8 h [8] was 2.66 µM·h and the IC50 [9] was 258 nM. For the same compound, the remaining at 0.5 h [10] was 69%.
`COc1cc(NCc2cc3cc(Cl)ccc3[nH]c2=O)ccc1C#N` showed an IC50 [1] of 1920 nM, a Ratio IC50 (Homo sapiens) of 4 and an IC50 [2] of 100000 nM. It also gave a solubility kinetic [3] of 0.43 µM (≈ 0.146 µg/mL), a remaining at 0.5 h [4] of 81% and a concentration at 4 h [11] of 100 nM. The half-life [5] was 1.27 h, the IC50 [6] was 2250 nM and the Cmax [7] was 1060 nM. The AUC(0-t) at 8 h [8] was 2.45 µM·h, the IC50 [9] was 1250 nM and the remaining at 0.5 h [10] was 42%.
`COc1cc2[nH]c(=O)c([C@H](C)Nc3ncc(C#N)c(OC)n3)cc2cc1Cl` showed a half-life [12] of 3.07 h, an IC50 [13] of 3 nM and an IC50 [1] of 40 nM. It also gave a fraction unbound [14] of 0.0228, a Papp B→A [15] of 9.47 ×10⁻⁶ cm/s and an IC50 [16] of 5 nM. The logD [17] was 2.74, the bioavailability [18] was 85% and the fraction unbound [19] was 0.0144. For the same compound, the AUC(0-inf) [20] was 10.7 µM·h, the efflux ratio [21] was 1.65 and the AUC(0-inf) [22] was 21.5 µM·h. For the same compound, the remaining at 0.5 h [23] was 88%, the half-life [24] was 2.6 h and the clearance [25] was 16.4 mL/min/kg. It also gave a clearance [26] of 8.5 mL/min/kg, a Papp [27] of 12.7 ×10⁻⁶ cm/s and a CLint scaled [28] of 19.1 mL/min/kg. The fAUC [29] was 0.132 µM·h, the solubility kinetic [3] was 5.7 µM (≈ 2.2 µg/mL) and the remaining at 0.5 h [4] was 97%. The fraction unbound [30] was 0.0045, the Papp A→B [31] was 5.73 ×10⁻⁶ cm/s and the fraction unbound [32] was 0.0083. It also gave a half-life [33] of 3.5 h, an IC50 [34] of 129 nM and a clearance [35] of 4.3 mL/min/kg. For the same compound, the Cmax [36] was 1900 nM, the bioavailability [37] was 75% and the AUC(0-inf) [38] was 5.8 µM·h. The fAUC [39] was 0.178 µM·h, the IC50 [6] was 36 nM and the fAUC [40] was 0.043 µM·h. For the same compound, the Cmax [41] was 5200 nM, the IC50 [9] was 4 nM and the half-life [42] was 6.2 h.
